Measurements reported in PubChem BioAssay (NCI).
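Cells were grown in 96-well plates and exposed to each compound for 48 hours at five concentrations; endpoints were interpolated linearly between bracketing concentrations, or set to the highest concentration if not reached. GI50 = concentration required for 50% inhibition of growth. TGI denotes the concentration required for complete inhibition of growth.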

How the values were obtained:
Test in all cases: NCI-60 cell line screen, 48 h
UACC-257 melanoma = system: UACC-257 melanoma
CCRF-CEM leukemia = system: CCRF-CEM leukemia
SK-MEL-28 melanoma = system: SK-MEL-28 melanoma
DU-145 prostate = system: DU-145 prostate
SF-295 CNS = system: SF-295 CNS
NCI-H522 lung = system: NCI-H522 lung
MALME-3M melanoma = system: MALME-3M melanoma
A498 renal = system: A498 renal
OVCAR-3 ovarian = system: OVCAR-3 ovarian
RXF 393 renal = system: RXF 393 renal
KM12 colon = system: KM12 colon
OVCAR-8 ovarian = system: OVCAR-8 ovarian
IGROV1 ovarian = system: IGROV1 ovarian
HT29 colon = system: HT29 colon
K-562 leukemia = system: K-562 leukemia
PC-3 prostate = system: PC-3 prostate
RPMI-8226 leukemia = system: RPMI-8226 leukemia
SW-620 colon = system: SW-620 colon
MDA-MB-468 breast = system: MDA-MB-468 breast
MCF7 breast = system: MCF7 breast
NCI-H460 lung = system: NCI-H460 lung
SNB-19 CNS = system: SNB-19 CNS
HL-60(TB) leukemia = system: HL-60(TB) leukemia
SNB-75 CNS = system: SNB-75 CNS
NCI-H23 lung = system: NCI-H23 lung
ACHN renal = system: ACHN renal
BT-549 breast = system: BT-549 breast
HCT-15 colon = system: HCT-15 colon
SK-OV-3 ovarian = system: SK-OV-3 ovarian
SF-539 CNS = system: SF-539 CNS
HS 578T breast = system: HS 578T breast
LOX IMVI melanoma = system: LOX IMVI melanoma
T-47D breast = system: T-47D breast
SN12C renal = system: SN12C renal
COLO 205 colon = system: COLO 205 colon
HCC-2998 colon = system: HCC-2998 colon
TK-10 renal = system: TK-10 renal
UO-31 renal = system: UO-31 renal
OVCAR-5 ovarian = system: OVCAR-5 ovarian
M14 melanoma = system: M14 melanoma
MDA-MB-435 = system: MDA-MB-435
U251 CNS = system: U251 CNS
HOP-92 NSCLC = system: HOP-92 NSCLC
OVCAR-4 ovarian = system: OVCAR-4 ovarian
CAKI-1 renal = system: CAKI-1 renal
EKVX NSCLC = system: EKVX NSCLC
MDA-MB-231 breast = system: MDA-MB-231 breast
SR leukemia = system: SR leukemia
UACC-62 melanoma = system: UACC-62 melanoma
786-0 renal = system: 786-0 renal
NCI/ADR-RES ovarian = system: NCI/ADR-RES ovarian
SK-MEL-2 melanoma = system: SK-MEL-2 melanoma
SF-268 CNS = system: SF-268 CNS
HOP-62 NSCLC = system: HOP-62 NSCLC
MOLT-4 leukemia = system: MOLT-4 leukemia
NCI-H226 lung = system: NCI-H226 lung
A549 NSCLC = system: A549 NSCLC
HCT-116 colon = system: HCT-116 colon
SK-MEL-5 melanoma = system: SK-MEL-5 melanoma

CCN1CCN(c2ccc(NC(=O)Nc3ccc(-c4cc(C(=O)NC)c5ncccc5n4)cc3)cc2C(F)(F)F)CC1
GI50 (UACC-257 melanoma): 3050 nM
TGI (UACC-257 melanoma): 6000 nM
GI50 (CCRF-CEM leukemia): 461 nM
TGI (CCRF-CEM leukemia): 1270 nM
GI50 (SK-MEL-28 melanoma): 322 nM
TGI (SK-MEL-28 melanoma): 582 nM
GI50 (DU-145 prostate): 2230 nM
TGI (DU-145 prostate): 4900 nM
GI50 (SF-295 CNS): 2050 nM
TGI (SF-295 CNS): 4470 nM
GI50 (NCI-H522 lung): 3230 nM
TGI (NCI-H522 lung): 6400 nM
GI50 (MALME-3M melanoma): 286 nM
TGI (MALME-3M melanoma): 532 nM
GI50 (A498 renal): 2740 nM
TGI (A498 renal): 5310 nM
GI50 (OVCAR-3 ovarian): 2550 nM
TGI (OVCAR-3 ovarian): 5060 nM
GI50 (RXF 393 renal): 494 nM
TGI (RXF 393 renal): 1660 nM
GI50 (KM12 colon): 3250 nM
TGI (KM12 colon): 6650 nM
GI50 (OVCAR-8 ovarian): 3850 nM
TGI (OVCAR-8 ovarian): 10500 nM
GI50 (IGROV1 ovarian): 3010 nM
TGI (IGROV1 ovarian): 5610 nM
GI50 (HT29 colon): 525 nM
TGI (HT29 colon): 2110 nM
GI50 (K-562 leukemia): 657 nM
TGI (K-562 leukemia): > 18000 nM
GI50 (PC-3 prostate): 2880 nM
TGI (PC-3 prostate): 6030 nM
GI50 (RPMI-8226 leukemia): 3050 nM
TGI (RPMI-8226 leukemia): > 18000 nM
GI50 (SW-620 colon): 314 nM
TGI (SW-620 colon): 621 nM
GI50 (MDA-MB-468 breast): 2480 nM
TGI (MDA-MB-468 breast): 5030 nM
GI50 (MCF7 breast): 293 nM
TGI (MCF7 breast): 608 nM
GI50 (NCI-H460 lung): 664 nM
TGI (NCI-H460 lung): 2920 nM
GI50 (SNB-19 CNS): 2970 nM
TGI (SNB-19 CNS): 5480 nM
GI50 (HL-60(TB) leukemia): 3420 nM
TGI (HL-60(TB) leukemia): > 18000 nM
GI50 (SNB-75 CNS): 842 nM
TGI (SNB-75 CNS): 3820 nM
GI50 (NCI-H23 lung): 2680 nM
TGI (NCI-H23 lung): 5680 nM
GI50 (ACHN renal): 2390 nM
TGI (ACHN renal): 4730 nM
GI50 (BT-549 breast): 2780 nM
TGI (BT-549 breast): 5670 nM
GI50 (HCT-15 colon): 333 nM
TGI (HCT-15 colon): 697 nM
GI50 (SK-OV-3 ovarian): 3480 nM
TGI (SK-OV-3 ovarian): 7500 nM
GI50 (SF-539 CNS): 2300 nM
TGI (SF-539 CNS): 4570 nM
GI50 (HS 578T breast): 2390 nM
TGI (HS 578T breast): 6880 nM
GI50 (LOX IMVI melanoma): 674 nM
TGI (LOX IMVI melanoma): 2660 nM
GI50 (T-47D breast): 3720 nM
TGI (T-47D breast): > 18000 nM
GI50 (SN12C renal): 2770 nM
TGI (SN12C renal): 5300 nM
GI50 (COLO 205 colon): 4150 nM
TGI (COLO 205 colon): 14200 nM
GI50 (HCC-2998 colon): 2830 nM
TGI (HCC-2998 colon): 5310 nM
GI50 (TK-10 renal): 3860 nM
TGI (TK-10 renal): 6630 nM
GI50 (UO-31 renal): 2710 nM
TGI (UO-31 renal): 5140 nM
GI50 (OVCAR-5 ovarian): 2820 nM
TGI (OVCAR-5 ovarian): 5230 nM
GI50 (M14 melanoma): 400 nM
TGI (M14 melanoma): 1050 nM
GI50 (MDA-MB-435): 269 nM
TGI (MDA-MB-435): 564 nM
GI50 (U251 CNS): 2700 nM
TGI (U251 CNS): 5530 nM
GI50 (HOP-92 NSCLC): 2450 nM
TGI (HOP-92 NSCLC): 5670 nM
GI50 (OVCAR-4 ovarian): 2630 nM
TGI (OVCAR-4 ovarian): 5640 nM
GI50 (CAKI-1 renal): 3010 nM
TGI (CAKI-1 renal): 5600 nM
GI50 (EKVX NSCLC): 2940 nM
TGI (EKVX NSCLC): 5630 nM
GI50 (MDA-MB-231 breast): 2780 nM
TGI (MDA-MB-231 breast): 5250 nM
GI50 (SR leukemia): 670 nM
TGI (SR leukemia): > 18000 nM
GI50 (UACC-62 melanoma): 3060 nM
TGI (UACC-62 melanoma): 5660 nM
GI50 (786-0 renal): 295 nM
TGI (786-0 renal): 583 nM
GI50 (NCI/ADR-RES ovarian): 1780 nM
TGI (NCI/ADR-RES ovarian): 8090 nM
GI50 (SK-MEL-2 melanoma): 9870 nM
TGI (SK-MEL-2 melanoma): > 18000 nM
GI50 (SF-268 CNS): 3090 nM
TGI (SF-268 CNS): 7000 nM
GI50 (HOP-62 NSCLC): 2790 nM
TGI (HOP-62 NSCLC): 5410 nM
GI50 (MOLT-4 leukemia): 689 nM
TGI (MOLT-4 leukemia): > 18000 nM
GI50 (NCI-H226 lung): 2700 nM
TGI (NCI-H226 lung): 6360 nM
GI50 (A549 NSCLC): 466 nM
TGI (A549 NSCLC): 1300 nM
GI50 (HCT-116 colon): 1120 nM
TGI (HCT-116 colon): 4830 nM
GI50 (SK-MEL-5 melanoma): 2050 nM
TGI (SK-MEL-5 melanoma): 4260 nM
